Reference: article PMC9849758, “Chemically diverse activity-based probes with unexpected inhibitory mechanisms targeting trypsin-like serine proteases” (Frontiers in Chemistry, 2023)
“Also recorded” adds a separate entry of the source. Where a name gives a salt, the structure may show the parent alone.

Legend:
Format in all cases: biochemical
[1] = biological target: T1, uPA (Homo sapiens, UniProt P00749); assay: Kinetic progress curves (kapp, mechanism); settings: for uPA kapp: apparent second-order rate constant from progress curves, mean ± SD; for uPA mechanism of inhibition: defined by the progress curves: slow-binding (Rev.) or irreversible (Irrev.)
T1 construct: purchased HYPHEN BioMed
Experimental: (§1) Because the compounds described in this paper were previously described as irreversible inhibitors, the IC50 value is inversely correlated with the second-order rate constant of inactivation. For a simple pseudo-first-order inactivation process, the activity after incubation with inhibitor (vi) varies with the inhibitor concentration (i), as described in the following equation: vi=v0·e^−kit where v0 is the activity in the absence of an inhibitor, k is the second-order rate constant of inactivation, and t is the time. The inactivation rate constant was determined from the time course of inhibition.
(§2) Kinetic assays were performed in the following manner. The inhibitor was mixed with the substrate, and the buffer solution with the enzyme was added at the time zero. The progress curves show the release of pNA or AMC as a function of time. Initially, no inhibitor is bound to the enzyme, and the tangent to the progress curve (dA/dt) is proportional to the free enzyme concentration. The free enzyme concentration decreases over time due to inhibitor binding kinetics, as described above. Progress curves were recorded in pseudo-first-order conditions ([I]0>>[E]0) and with less than 10% conversion of the substrate during the entire time course. In these conditions, dA/dt decreases exponentially with time. The progress curves were fitted with the integrated rate equation with GraFit7 to yield a value for kobs, a pseudo-first-order rate constant. At=Ao+vs∙t+vi−vs∙1−e^−kobs∙t/kobs where At is the absorbance at time t, A0 is the absorbance at time zero, vi is the initial rate and vs is the velocity at the steady-state.
(§3) The apparent second-order rate constant (kapp) was calculated from the slope of the linear part of the plot of kobs vs. the inhibitor concentration ([I]0). In the case of competition between the inhibitor and the substrate, kapp is smaller than the “real” second-order rate constant k discussed above because a certain fraction of the enzyme is present as an enzyme-substrate complex. kapp depends on the substrate concentration used in the experiment, as described by [Lambeir et al. (1996)].
(§4) The apparent equilibrium constants were obtained from the following equations, vi/vo=1/1+I/K1; vS/vo=1/1+I/KI* where vi is the initial rate, vs is the steady-state velocity and vo is the uninhibited initial rate.

[2] = biological target: T1, uPA; assay: Jump dilution, determination of inhibition type; settings: inhibitor at 10 times IC50, 15 min, diluted 10-fold or 100-fold; Rev./Irrev.
Experimental: (§5) The dissociation of the enzyme-inhibitor complex was monitored by substrate hydrolysis over time ([Joossens et al., 2006]).
(§6) Because ABPs are designed to be irreversible serine protease inhibitors, the IC50 is exclusively used as a first discriminatory evaluation. When an inhibitor is irreversible, its IC50 value not only depends on the substrate and enzyme concentration but also on the time of incubation with the enzyme before the reaction is started by adding the substrate. […] The progress curve in the presence of an irreversible inhibitor will show final velocities equal to zero (Figure 6C). In contrast, for a reversible inhibitor, progress curves have a non-zero final steady-state velocity (Figure 6A) ([McWhirter, 2021]). To corroborate the inhibitory mechanism of the compounds, jump-dilution assays were performed. These use an inhibitor concentration of 10-fold the IC50 for the incubation, and a posteriori, the reaction mixture is diluted 10-fold or 100-fold before adding the substrate. In the case of an irreversible inhibitor, enzymatic activity is not regained (Figure 6D), whereas, in the case of a reversible compound, a slow release of the inhibitor and a gradual increase of the enzymatic activity rate is observed (Figure 6B) ([Copeland, 2013]; [McWhirter, 2021]). The jump-dilution assays confirmed the behavior described by the progress curves.
(§7) 2.2.2 Jump dilution results
(§8) Supplementary Table 2. Jump dilution of selected alkyne and desthiobiotin probes against a panel of trypsin-like serine proteases. […]
(§9) # R R DtBa 3 tryptase Thrombin uPA CatG
(§10) 32b H Alk Irrev. Irrev. Rev. Irrev. Rev.
(§11) 45b DtB Irrev. Irrev. Rev. N.D. N.D.
(§12) 33b Alk Irrev. Irrev. Rev. Irrev. Rev.
(§13) 46b Cl DtB Irrev. Irrev. Rev. N.D. N.D.
(§14) 34b H Alk Rev. Rev. Rev. Irrev. Rev.
(§15) 50b DtB Rev. Rev. Rev. Irrev. Rev.
(§16) 35b Alk Rev. Rev. Rev. Irrev. Rev.
(§17) 52b NHCOMe DtB Rev. Rev. Rev. Irrev. Rev.
(§18) 36b Alk Rev. Rev. Rev. Irrev. Rev.
(§19) 54b Cl DtB Rev. Rev. Rev. Irrev. Rev.
(§20) 37b Alk Irrev. Irrev. N.D. Irrev. Irrev.
(§21) 55b H DtB Irrev. Irrev. N.D. Irrev. Irrev.
(§22) 38b Alk Irrev. Irrev. N.D. Irrev. Irrev.
(§23) 56b NHCOMe DtB Irrev. Irrev. N.D. Irrev. Irrev.
(§24) 39b Alk Irrev. Irrev. N.D. Irrev. Rev.
(§25) 57b Cl DtB Irrev. Irrev. N.D. Irrev. Rev.
(§26) 41b H Alk Irrev. Irrev. Irrev. N.D. N.D.
(§27) 31b Pro-Lys H Alk Irrev. Irrev. Irrev. Irrev. N.D. a Alk: ABP precursor bearing an alkyne; DtB: desthiobiotin probe b Panel of serine proteases abbreviations: urokinase plasminogen activator (uPA), cathepsin G (catG) N.D.: IC50 is greater than 10µM, and jump dilution was not performed
(§28) 2.2.3 Progress curves and Jump dilution experiments
(§29) Kinetic assays were performed in the following manner. The inhibitor was mixed with the substrate, and the buffer solution with the enzyme was added at the time zero. The progress curves show the release of para-nitroaniline (pNA) or 7-amino-4-methyl coumarin (AMC) as a function of time.
(§30) To monitor the dissociation of the inhibitor-enzyme, aliquots of the enzyme were incubated at 37 °C without and with the inhibitor at a concentration 10 times higher than its IC 50. The enzyme […]
(§31) min, the aliquots were diluted 10-fold or 100-fold into the substrate concentration and assay buffer used for the IC50 determination. The dissociation of the enzyme-inhibitor complex was monitored by substrate hydrolysis over time. Blue lines represent the control where no inhibitor was present. Pink lines represent the assay with inhibitor.

[3] = biological target: T2, Trypsin-3 (Homo sapiens, UniProt P35030); assay: Jump dilution, determination of inhibition type; design: purchased R&D; settings: inhibitor at 10 times IC50, 15 min, diluted 10-fold or 100-fold; Rev./Irrev.
T2 sequence (P35030 1-304): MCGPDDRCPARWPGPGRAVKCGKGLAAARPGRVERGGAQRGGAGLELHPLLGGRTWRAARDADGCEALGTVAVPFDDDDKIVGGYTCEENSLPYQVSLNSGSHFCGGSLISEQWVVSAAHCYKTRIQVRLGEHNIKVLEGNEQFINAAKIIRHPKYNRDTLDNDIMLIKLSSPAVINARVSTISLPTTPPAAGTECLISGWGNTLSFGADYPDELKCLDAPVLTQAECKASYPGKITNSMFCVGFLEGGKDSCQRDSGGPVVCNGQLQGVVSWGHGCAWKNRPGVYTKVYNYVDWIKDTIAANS
Experimental: as §5, §6, §7, §8, §9, §10, §11, §12, §13, §14, §15, §16, §17, §18, §19, §20, §21, §22, §23, §24, §25, §26, §27, §28, §29, §30, §31

[4] = biological target: β-tryptase (Homo sapiens, UniProt P20231); assay: Kinetic progress curves (kapp, K1, KI*, mechanism); design: purchased EnzoLife Sciences; settings: for β-tryptase kapp: apparent second-order rate constant from progress curves; for β-tryptase kapp / Ki: mean ± SD; for β-tryptase mechanism of inhibition: defined by the progress curves: slow-binding (Rev.) or irreversible (Irrev.)
β-tryptase, sequence (P20231 31-275): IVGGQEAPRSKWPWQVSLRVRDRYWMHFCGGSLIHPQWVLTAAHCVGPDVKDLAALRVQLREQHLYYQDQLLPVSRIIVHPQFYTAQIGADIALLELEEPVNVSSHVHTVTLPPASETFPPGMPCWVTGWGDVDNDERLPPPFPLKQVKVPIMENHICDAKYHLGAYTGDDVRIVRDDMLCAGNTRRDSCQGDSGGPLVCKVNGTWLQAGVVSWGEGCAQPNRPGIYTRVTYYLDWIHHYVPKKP
Experimental: as §1, §2, §3, §4

[5] = β-tryptase K1, apparent equilibrium constant of the first step of slow-binding
[6] = β-tryptase KI*, apparent equilibrium constant of the overall process

## C#CCCCOC(=O)NC(c1ccc(NC(=N)N)cc1)P(=O)(Oc1ccccc1)Oc1ccccc1.O=C(O)C(F)(F)F (centres unmarked) [37b, Pent-4-yn-1-yl ((diphenoxyphosphoryl)(4-guanidinophenyl)methyl)carbamate trifluoroacetate salt]
[1]
  uPA kapp: 124 ± 23 M⁻¹ s⁻¹
  uPA mechanism of inhibition: Irrev.
[2]
  uPA jump dilution result: Irrev.
[3]
  Trypsin-3 jump dilution result: Irrev.
[4]
  β-tryptase kapp: 375 ± 34 M⁻¹ s⁻¹
  β-tryptase mechanism of inhibition: Irrev.

## C#CCCCOC(=O)NC(CCCNC(=N)N)P(=O)(Oc1ccccc1)Oc1ccccc1 (centres unmarked) [32b]
[1]
  uPA kapp: 41 ± 4 M⁻¹ s⁻¹
  uPA mechanism of inhibition: Irrev.
[2]
  uPA jump dilution result: Irrev.
[3]
  Trypsin-3 jump dilution result: Irrev.
[4]
  β-tryptase kapp: 41 ± 5 M⁻¹ s⁻¹
  β-tryptase mechanism of inhibition: Irrev.

## C#CCCCOC(=O)NC(Cc1ccc(NC(=N)N)cc1)P(=O)(Oc1ccccc1)Oc1ccccc1 (centres unmarked) [34b]
[1]
  uPA kapp: 75 × 10^2 ± 725 M^−1 s^−1
  uPA mechanism of inhibition: Irrev.
[2]
  uPA jump dilution result: Irrev.
[3]
  Trypsin-3 jump dilution result: Rev.
[4]
  β-tryptase kapp: 712 ± 41 M⁻¹ s⁻¹
  β-tryptase mechanism of inhibition: Rev.
[4]; [5]
  Ki: 15800 ± 5000 nM
[4]; [6]
  Ki: 1110 ± 90 nM

## C#CCCCOC(=O)NC(Cc1ccc(NC(=N)N)cc1)P(=O)(Oc1ccc(NC(C)=O)cc1)Oc1ccc(NC(C)=O)cc1 (centres unmarked) [35b]
[1]
  uPA kapp: 130000 ± 30000 M⁻¹ s⁻¹
  uPA mechanism of inhibition: Irrev.
[2]
  uPA jump dilution result: Irrev.
[3]
  Trypsin-3 jump dilution result: Rev.
[4]
  β-tryptase kapp: 70 × 10^2 ± 582 M^−1 s^−1
  β-tryptase mechanism of inhibition: Rev.
[4]; [5]
  Ki: 3200 ± 1800 nM
[4]; [6]
  Ki: 120 ± 10 nM

## C#CCCCOC(=O)NC(C1CCN(C(=N)N)CC1)P(=O)(Oc1ccccc1)Oc1ccccc1 (centres unmarked) [41b]
[3]
  Trypsin-3 jump dilution result: Irrev.
[4]
  β-tryptase kapp: 27 ± 2 M⁻¹ s⁻¹
  β-tryptase mechanism of inhibition: irreversible inhibition; also recorded: Irrev

## C[C@@H]1NC(=O)N[C@@H]1CCCCCC(=O)NCCOCCOCCOCCn1cc(CCCOC(=O)NC(CCCNC(=N)N)P(=O)(Oc2ccccc2)Oc2ccccc2)nn1 (some centres unmarked) [45b]
[3]
  Trypsin-3 jump dilution result: Irrev.
[4]
  β-tryptase kapp: 237 ± 42 M⁻¹ s⁻¹
  β-tryptase mechanism of inhibition: Irrev.

## CC(=O)Nc1ccc(OP(=O)(Oc2ccc(NC(C)=O)cc2)C(NC(=O)OCCCc2cn(CCOCCOCCOCCNC(=O)CCCCC[C@H]3NC(=O)N[C@H]3C)nn2)c2ccc(NC(=N)N)cc2)cc1 (some centres unmarked) [56b]
[1]
  uPA kapp: 62 ± 2 M⁻¹ s⁻¹
  uPA mechanism of inhibition: Irrev.
[2]
  uPA jump dilution result: Irrev.
[3]
  Trypsin-3 jump dilution result: Irrev.
[4]
  β-tryptase kapp: 321 ± 2 M⁻¹ s⁻¹
  β-tryptase mechanism of inhibition: Irreversible; also recorded: Irrev

## C[C@@H]1NC(=O)N[C@@H]1CCCCCC(=O)NCCOCCOCCOCCn1cc(CCCOC(=O)NC(Cc2ccc(NC(=N)N)cc2)P(=O)(Oc2ccccc2)Oc2ccccc2)nn1 (stereo partly drawn) [50b, 3-(1-(18-((4R,5S)-5-methyl-2-oxoimidazolidin-4-yl)-13-oxo-3,6,9-trioxa-12-azaoctadecyl)-1H-1,2,3-triazol-4-yl)propyl (1-(diphenoxyphosphoryl)-2-(4-guanidinophenyl)ethyl)carbamate trifluoroacetate salt]
[1]
  uPA kapp: 33000 ± 12000 M⁻¹ s⁻¹
  uPA mechanism of inhibition: Irrev.
[2]
  uPA jump dilution result: Irrev.
[3]
  Trypsin-3 jump dilution result: Rev.
[4]
  β-tryptase kapp: 32 × 10^2 ± 613 M^−1 s^−1
  β-tryptase mechanism of inhibition: Rev.
[4]; [5]
  Ki: 3280 ± 500 nM
[4]; [6]
  Ki: 410 ± 30 nM

## C#CCCCOC(=O)NC(CCCNC(=N)N)P(=O)(Oc1ccc(Cl)cc1)Oc1ccc(Cl)cc1 (centres unmarked) [33b]
[1]
  uPA kapp: 15 × 10^2 ± 12 M^−1 s^−1
  uPA mechanism of inhibition: irreversibility; also recorded: Irrev
[2]
  uPA jump dilution result: Irrev.
[3]
  Trypsin-3 jump dilution result: Irrev.
[4]
  β-tryptase kapp: 28 × 10^2 ± 82 M^−1 s^−1
  β-tryptase mechanism of inhibition: irreversibility; also recorded: irreversible; also recorded: Irrev

## C#CCCCOC(=O)NC(c1ccc(NC(=N)N)cc1)P(=O)(Oc1ccc(Cl)cc1)Oc1ccc(Cl)cc1 (centres unmarked) [39b, Pent-4-yn-1-yl ((bis(4-chlorophenoxy)phosphoryl)(4-guanidinophenyl)methyl)carbamate]
[1]
  uPA mechanism of inhibition: Irrev.
[2]
  uPA jump dilution result: Irrev.
[3]
  Trypsin-3 jump dilution result: Irrev.
[4]
  β-tryptase mechanism of inhibition: irreversible; also recorded: Irrev

## CC(=O)Nc1ccc(OP(=O)(Oc2ccc(NC(C)=O)cc2)C(Cc2ccc(NC(=N)N)cc2)NC(=O)OCCCc2cn(CCOCCOCCOCCNC(=O)CCCCC[C@H]3NC(=O)N[C@H]3C)nn2)cc1 (some centres unmarked) [52b]
[1]
  uPA kapp: 38 × 10^3 ± 4175 M^−1 s^−1
  uPA mechanism of inhibition: Irrev.
[2]
  uPA jump dilution result: Irrev.
[3]
  Trypsin-3 jump dilution result: Rev.
[4]
  β-tryptase kapp: 18 × 10^3 ± 1184 M^−1 s^−1
  β-tryptase mechanism of inhibition: Reversible and Rev.
[4]; [5]
  Ki: 680 ± 70 nM
[4]; [6]
  Ki: 60 ± 3 nM

## C[C@@H]1NC(=O)N[C@@H]1CCCCCC(=O)NCCOCCOCCOCCn1cc(CCCOC(=O)NC(CCCNC(=N)N)P(=O)(Oc2ccc(Cl)cc2)Oc2ccc(Cl)cc2)nn1 (some centres unmarked) [46b]
[1]
  uPA kapp: 940 ± 37 M⁻¹ s⁻¹
  uPA mechanism of inhibition: Irrev.
[3]
  Trypsin-3 jump dilution result: Irrev.
[4]
  β-tryptase kapp: 75 × 10^2 ± 1475 M^−1 s^−1
  β-tryptase mechanism of inhibition: Irrev.
